In patent US20240254118A1, “PRMT5 INHIBITORS AND USES THEREOF” (Gilead Sciences, Inc., priority 2022, published 2024):
pEC50: −log10 of the molar value.

Columns and labels:
[1] = test system: HCT116 MTAP-deleted cells; assay: Cell viability assay (CellTiter-Glo, 7 days), HCT116 MTAP-deleted; conditions: Homo sapiens, HCT-116, 168 h
[2] = test system: SDMA signal (PRMT5 inhibition) in HCT116 MTAP-deleted cells; assay: Symmetric di-methyl arginine image-based high content screen assay (SDMA assay), HCT116 MTAP-deleted; assay type: cell-based; conditions: SDMA assay; for pEC50: Homo sapiens, HCT-116, 72 h, 3 days of treatment, cell line not given, taken as HCT116 MTAP-deleted, read-out: EC50 (SDMA assay); for EC50 selectivity (SDMA assay): taken as HCT116 WT versus MTAP-deleted
Description: Symmetric di-methyl arginine image-based high content screen assay (SDMA assay) was performed in HCT116 WT and HCT116 MTAP-deleted cell lines to measure Symmetric Di-methyl Arginine (SDMA) signal reduction after selective PRMT5 inhibition in the MTAP-deleted cells.
Briefly, the same compound plates were generated as mentioned in the previous section of Cell viability assay on Day −1.
On Day 3, the cells were fixed by adding 45 μl of 8% neutralized formalin solution to each well using EL460 liquid dispenser 5 μl cassette and the cells were incubated for 30 minutes at room temperature. The formalin solution was washed off with […] phosphate buffered saline (dPBS), the 0.1% Triton X-100 solution in dPBS was used to permeabilize the cells for 15 minutes at room temperature. The triton solution was aspirated, 50 μl of Odyssey Blocking buffer+0.05% Tween20 was added and the plate was incubated at room temperature for 30 minutes.
The blocking solution was removed, a 20 μl of SDMA antibody (Cell Signaling Technology, Cat no. 13222) diluted 1:500 in Odyssey Blocking buffer+0.05% Tween20 was added and the plate was incubated at 4° C. overnight. Next day, the primary SDME antibody solution was washed from each well three times with 0.05% Tween20 in dPBS (PBST).
A 30 μl of the secondary antibody, a Goat anti-Rabbit Alexa Fluor Plus 488 (Invitrogen, Cat no. PIA32731) was diluted 1:500 in Odyssey Blocking buffer+0.05% Tween20 and the plate was incubated for 1.5 hours in dark at room temperature. The secondary antibody solution was removed, 30 μl of 5 mg/ml DAPI solution diluted 1:2000 in dPBS was added and the plate was incubated for 30 minutes in dark at room temperature. The DAPI solution was aspirated and the wells were washed six times with dPBS.
The SDMA signal and DAPI signal per cell were counted using a Cellomics CX7 LZR instrument reading under 488 and 405 nm laser, respectively. The SDMA signal was quantified by mean average intensity per cell from Alexa Fluor Plus 488 after the cell was defined with DAPI.

Compound	pEC50 [2]	EC50 selectivity (SDMA assay) [2]	CC50 [1]
Cn1ncc2c(N)nc3ccc(C(=O)N(Cc4ccc(C(F)(F)F)cn4)N4CCC(C)(C)C4=O)cc3c21 [Example 43, 4-amino-N-(3,3-dimethyl-2-oxo-pyrrolidin-1-yl)-1-methyl-N-[[5-(trifluoromethyl)-2-pyridyl]methyl]pyrazolo[4,3-c]quinoline-8-carboxamide]	8.30 to 9.00	226	< 100 nM
Cn1ncc2c(N)nc3cc(F)c(C(=O)N(Cc4ccc(C(F)(F)F)cn4)N4CCC(C)(C)C4=O)cc3c21 [Example 44, 4-amino-N-(3,3-dimethyl-2-oxo-pyrrolidin-1-yl)-7-fluoro-1-methyl-N-[[5-(trifluoromethyl)-2-pyridyl]methyl]pyrazolo[4,3-c]quinoline-8-carboxamide]	8.30 to 9.00	187	< 100 nM
CCOC(=O)NN(Cc1ccc(C(F)(F)F)cn1)C(=O)c1ccc2nc(N)c3cnn(C)c3c2c1 [Example 45, ethyl N-[(4-amino-1-methyl-pyrazolo[4,3-c]quinoline-8-carbonyl)-[[5-(trifluoromethyl)-2-pyridyl]methyl]amino]carbamate]	> 9.00	63	< 100 nM
CCOC(=O)NN(Cc1ccc(C(F)(F)F)cn1)C(=O)c1cc2c(cc1F)nc(N)c1cnn(C)c12 [Example 46, ethyl N-[(4-amino-7-fluoro-1-methyl-pyrazolo[4,3-c]quinoline-8-carbonyl)-[[5-(trifluoromethyl)-2-pyridyl]methyl]amino]carbamate]	> 9.00	6	< 100 nM
CC(=O)N(C)N(Cc1ccc(F)cc1F)C(=O)c1ccc2nc(N)c3cnn(C)c3c2c1 [Example 47, N′-acetyl-4-amino-N-[(2,4-difluorophenyl)methyl]-N′,1-dimethyl-pyrazolo[4,3-c]quinoline-8-carbohydrazide]	> 9.00	121	< 100 nM
CC(=O)N(C)N(Cc1ccc(F)c(F)c1F)C(=O)c1ccc2nc(N)c3cnn(C)c3c2c1 [Example 48, N′-acetyl-4-amino-N′,1-dimethyl-N-[(2,3,4-trifluorophenyl)methyl]pyrazolo[4,3-c]quinoline-8-carbohydrazide]	8.30 to 9.00	326	< 100 nM
CC(=O)N(C)N(Cc1cc(F)c(F)cc1F)C(=O)c1ccc2nc(N)c3cnn(C)c3c2c1 [Example 49, N′-acetyl-4-amino-N′,1-dimethyl-N-[(2,4,5-trifluorophenyl)methyl]pyrazolo[4,3-c]quinoline-8-carbohydrazide]	> 9.00	163	< 100 nM
Cn1ncc2c(N)nc3ccc(C(=O)N(Cc4ccc(C(F)(F)F)cc4F)N4CCOCC4=O)cc3c21 [Example 50, 4-amino-N-[[2-fluoro-4-(trifluoromethyl)phenyl]methyl]-1-methyl-N-(3-oxomorpholin-4-yl)pyrazolo[4,3-c]quinoline-8-carboxamide]	> 9.00	31	< 100 nM
CN(C(=O)C1(C)CC1)N(Cc1ccc(C(F)(F)F)cn1)C(=O)c1ccc2nc(N)c3cnn(C)c3c2c1 [Example 51, 4-amino-N′,1-dimethyl-N′-(1-methylcyclopropanecarbonyl)-N-[[5-(trifluoromethyl)-2-pyridyl]methyl]pyrazolo[4,3-c]quinoline-8-carbohydrazide]	8.30 to 9.00	260	< 100 nM
CN(C(=O)C1(C(F)(F)F)CC1)N(Cc1ccc(C(F)(F)F)cn1)C(=O)c1ccc2nc(N)c3cnn(C)c3c2c1 [Example 52, 4-amino-N′, 1-dimethyl-N′-[1-(trifluoromethyl)cyclopropanecarbonyl]-N-[[5-(trifluoromethyl)-2-pyridyl]methyl]pyrazolo[4,3-c]quinoline-8-carbohydrazide]	8.30 to 9.00	174	100 to 1000 nM
Cn1ncc2c(N)nc3cc(F)c(C(=O)N(Cc4ccccn4)N4CCCC4=O)cc3c21 [Example 53, 4-amino-7-fluoro-1-methyl-N-(2-oxopyrrolidin-1-yl)-N-(pyridin-2-ylmethyl)-1H-pyrazolo[4,3-c]quinoline-8-carboxamide]	8.30 to 9.00	338	100 to 1000 nM
Cn1ncc2c(N)nc3ccc(C(=O)N(Cc4ccccn4)N4CCCC4=O)cc3c21 [Example 54, 4-amino-1-methyl-N-(2-oxopyrrolidin-1-yl)-N-(pyridin-2-ylmethyl)-1H-pyrazolo[4,3-c]quinoline-8-carboxamide]	< 8.30	339	100 to 1000 nM
Cn1ncc2c(N)nc3cc(F)c(C(=O)N(Cc4ccccc4F)N4CCCC4=O)cc3c21 [Example 55, 4-amino-7-fluoro-N-(2-fluorobenzyl)-1-methyl-N-(2-oxopyrrolidin-1-yl)-1H-pyrazolo[4,3-c]quinoline-8-carboxamide]	> 9.00	168	< 100 nM
Cn1ncc2c(N)nc3ccc(C(=O)N(Cc4ccccc4F)N4CCCC4=O)cc3c21 [Example 56, 4-amino-N-(2-fluorobenzyl)-1-methyl-N-(2-oxopyrrolidin-1-yl)-1H-pyrazolo[4,3-c]quinoline-8-carboxamide]	> 9.00	195	< 100 nM
Cn1ncc2c(N)nc3cc(F)c(C(=O)N(Cc4ccc(C(F)(F)F)nc4)N4CCCC4=O)cc3c21 [Example 57, 4-amino-7-fluoro-1-methyl-N-(2-oxopyrrolidin-1-yl)-N-((6-(trifluoromethyl)pyridin-3-yl)methyl)-1H-pyrazolo[4,3-c]quinoline-8-carboxamide]	8.30 to 9.00	108	< 100 nM

The next lines start with results.

pEC50 [2]	EC50 selectivity (SDMA assay) [2]	Compound	CC50 [1]
8.30 to 9.00	126	CN1CCN(N(Cc2ccc(C(F)(F)F)cn2)C(=O)c2ccc3nc(N)c4cnn(C)c4c3c2)CC1 [Example 58, 4-amino-1-methyl-N-(4-methylpiperazin-1-yl)-N-((5-(trifluoromethyl)pyridin-2-yl)methyl)-1H-pyrazolo[4,3-c]quinoline-8-carboxamide]	100 to 1000 nM
> 9.00	53	CN1CCN(N(Cc2ccc(C(F)(F)F)cn2)C(=O)c2cc3c(cc2F)nc(N)c2cnn(C)c23)CC1 [Example 59, 4-amino-7-fluoro-1-methyl-N-(4-methylpiperazin-1-yl)-N-((5-(trifluoromethyl)pyridin-2-yl)methyl)-1H-pyrazolo[4,3-c]quinoline-8-carboxamide]	< 100 nM
8.30 to 9.00	58	Cn1ncc2c(N)nc3cc(F)c(C(=O)N(Cc4ccc(C(F)(F)F)nn4)N4CCCC4=O)cc3c21 [Example 60, 4-amino-7-fluoro-1-methyl-N-(2-oxopyrrolidin-1-yl)-N-((6-(trifluoromethyl)pyridazin-3-yl)methyl)-1H-pyrazolo[4,3-c]quinoline-8-carboxamide]	< 100 nM
8.30 to 9.00	124	CC(=O)N(C)N(Cc1ccc(C(F)(F)F)nn1)C(=O)c1ccc2nc(N)c3cnn(C)c3c2c1 [Example 61, N′-acetyl-4-amino-N′,1-dimethyl-N-((6-(trifluoromethyl)pyridazin-3-yl)methyl)-1H-pyrazolo[4,3-c]quinoline-8-carbohydrazide]	100 to 1000 nM
> 9.00	94	Cn1ncc2c(N)nc3ccc(C(=O)N(Cc4ccc(C(F)(F)F)cn4)N4CCOCC4=O)cc3c21 [Example 62, 4-amino-1-methyl-N-(3-oxomorpholin-4-yl)-N-[[5-(trifluoromethyl)-2-pyridyl]methyl]pyrazolo[4,3-c]quinoline-8-carboxamide]	< 100 nM
8.30 to 9.00	70	Cn1ncc2c(N)nc3cc(Cl)c(C(=O)N(Cc4ccc(C(F)(F)F)cn4)N4CCOCC4=O)cc3c21 [Example 63, 4-amino-7-chloro-1-methyl-N-(3-oxomorpholin-4-yl)-N-[[5-(trifluoromethyl)-2-pyridyl]methyl]pyrazolo[4,3-c]quinoline-8-carboxamide]	< 100 nM
> 9.00	15	Cn1ncc2c(N)nc3ccc(C(=O)N(Cc4c(F)cc(C(F)(F)F)cc4F)N4CCCCC4=O)cc3c21 [Example 64, 4-amino-N-[[2,6-difluoro-4-(trifluoromethyl)phenyl]methyl]-1-methyl-N-(2-oxo-1-piperidyl)pyrazolo[4,3-c]quinoline-8-carboxamide]	< 100 nM
